According to patent US9228097B2, “Phase change inks” (Xerox Corporation, priority 2013, dated 2016):

Legend:
[1] = Solubility testing in polyethylene wax (POLYWAX 655); type: physicochemical; settings: 1 g Solvent Black 3 or 2 g distearyl derivative in 50 g POLYWAX 655, 120° C. oil bath, stirred 3 h, then 1 h without stirring
Method: [drawing 41] molecular weight 892, were compared for solubility in polyethylene wax, a predominant component in phase change inks. 1 g of the Solvent Black 3 and 2 g of the distearyl derivative (because its molecular weight was about twice that of Solvent Black 3) were each dissolved in 50 g portions of POLYWAX 655 (Baker Petrolite) in 100 mL beakers equipped with magnetic stir bars. The solutions were placed in 120° C. oil baths and allowed to stir for 3 h, followed by cessation of stirring for 1 h, after which the solutions were poured into aluminum tins.

[2] = K-proofer print of the wax compositions on paper (darkness of the images as a sign of dissolved dye); type: physicochemical; settings: polyethylene wax compositions of the solubility test applied to paper with RK Print-Coat K-proofer

Row | Structure (SMILES) | solubility in polyethylene wax (solids on bottom of beaker) [1] | darkness (optical density) of images versus composition containing Solvent Black 3 [2]
1 | CC1(C)Nc2cccc3c(/N=N/c4ccc(/N=N/c5ccccc5)c5ccccc45)ccc(c23)N1 [Solvent Black 3, reference compound] | a substantial amount of the Solvent Black 3 appeared on the bottom of its beaker | 
2 | CCCCCCCCCCCCCCCCCC1(CCCCCCCCCCCCCCCCC)Nc2cccc3c(/N=N/c4ccc(/N=N/c5ccccc5)c5ccccc45)ccc(c23)N1 [distearyl derivative] | almost no solids appeared on the bottom of the beaker | considerably darker
